pEC50: −log10 of the molar value.
What follows are compounds tested against recombinant DYRK1A kinase (Homo sapiens (Human), UniProt Q13627) (assay: DYRK1A kinase assay (Ser/Thr 18 peptide Z-lyte FRET assay)). Details: DYRK1A kinase activity; 15 μM ATP, 1 h room temperature; method text calls the value IC50.
Type: biochemical
Procedure, shortened: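 Recombinant human DYRK1A (0.25 μg/mL) with 15 μM ATP and 4 μM Ser/Thr 18 peptide, 1 h at room temperature with compound (11-point, 1:3, 10 μM top, duplicate). Z-lyte development 1 h, then coumarin/fluorescein FRET emission ratio converted to % phosphorylation; IC50 by non-linear regression.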
Work on `COc1nc(NC2CCC3(CC2)OCCO3)nc2[nH]cc(-c3ccn4nccc4c3)c12` [Compound 2215, 4-Methoxy-5-(pyrazolo[1,5-a]pyridin-5-yl)-N-(1,4-dioxaspiro[4.5]decan-8-yl)-7H-pyrrolo[2,3-d]pyrimidin-2-amine] yielded a pEC50 of 8.80. `COc1nc(NC2CCN(C)CC2)nc2[nH]cc(-c3ccn4nccc4c3)c12` [Compound 2216, 4-Methoxy-N-(1-methylpiperidin-4-yl)-5-(pyrazolo[1,5-a]pyridin-5-yl)-7H-pyrrolo[2,3-d]pyrimidin-2-amine] gave a pEC50 of 8.13. With `COc1nc(NC2CCOCC2)nc2[nH]cc(-c3ccn4nccc4c3)c12` [Compound 2217, 4-Methoxy-5-(pyrazolo[1,5-a]pyridin-5-yl)-N-(tetrahydro-2H-pyran-4-yl)-7H-pyrrolo[2,3-d]pyrimidin-2-amine] the pEC50 was 8.66. For `CCOc1nc(N[C@H](C)C(F)(F)F)nc2[nH]cc(-c3ccn4nccc4c3)c12` [Compound 2218, (R)-4-Ethoxy-5-(pyrazolo[1,5-a]pyridin-5-yl)-N-(1,1,1-trifluoropropan-2-yl)-7H-pyrrolo[2,3-d]pyrimidin-2-amine], the pEC50 was 7.89. With `CCOc1nc(N[C@H]2CC[C@@H](O)CC2)nc2[nH]cc(-c3ccn4nccc4c3)c12` [Compound 2219, cis-4-((4-Ethoxy-5-(pyrazolo[1,5-a]pyridin-5-yl)-7H-pyrrolo[2,3-d]pyrimidin-2-yl)amino)cyclohexan-1-ol] the pEC50 was 8.46. Compound `CC(C)Oc1nc(N[C@H]2CC[C@@](C)(O)CC2)nc2[nH]cc(-c3ccn4nccc4c3)c12` [Compound 2220, cis-4-((4-Isopropoxy-5-(pyrazolo[1,5-a]pyridin-5-yl)-7H-pyrrolo[2,3-d]pyrimidin-2-yl)amino)-1-methylcyclohexan-1-ol] has a pEC50 of 7.18. `FC(F)CO[C@H]1CC[C@@H](Nc2ncc3c(-c4ccn5nccc5n4)c[nH]c3n2)CC1` [Compound 2222, N-(cis-4-(2,2-Difluoroethoxy)cyclohexyl)-5-(pyrazolo[1,5-a]pyrimidin-5-yl)-7H-pyrrolo[2,3-d]pyrimidin-2-amine] showed a pEC50 of 8.24. Compound `COc1nc(NC2CCOCC2)nc2[nH]cc(-c3ccn4nccc4n3)c12` [Compound 2224, 4-Methoxy-5-(pyrazolo[1,5-a]pyrimidin-5-yl)-N-(tetrahydro-2H-pyran-4-yl)-7H-pyrrolo[2,3-d]pyrimidin-2-amine] has a pEC50 of 7.97. Compound `COCCO[C@H]1CC[C@@H](Nc2ncc3c(-c4ccc5ncccc5c4)c[nH]c3n2)CC1` [Compound 2226, N-(cis-4-(2-Methoxyethoxy)cyclohexyl)-5-(quinolin-6-yl)-7H-pyrrolo[2,3-d]pyrimidin-2-amine] has a pEC50 of 8.21. `COc1nc(NC2CCC(F)(F)CC2)nc2[nH]cc(-c3ccc4ncccc4c3)c12` [Compound 2227, N-(4,4-Difluorocyclohexyl)-4-methoxy-5-(quinolin-6-yl)-7H-pyrrolo[2,3-d]pyrimidin-2-amine] showed a pEC50 of 6.76. `C[C@]1(O)CC[C@@H](Nc2ncc3c(-c4ccc5nccnc5c4)c[nH]c3n2)CC1` [Compound 2228, cis-1-Methyl-4-((5-(quinoxalin-6-yl)-7H-pyrrolo[2,3-d]pyrimidin-2-yl)amino)cyclohexan-1-ol] was tested, and the pEC50 was 8.59. Compound `OCCO[C@H]1CC[C@@H](Nc2ncc3c(-c4ccc5nccnc5c4)c[nH]c3n2)CC1` [Compound 2229, 2-((cis-4-((5-(Quinoxalin-6-yl)-7H-pyrrolo[2,3-d]pyrimidin-2-yl)amino)cyclohexyl)oxy)ethan-1-ol] has a pEC50 of 8.59. With `COc1nc(NC2CCC(F)(F)CC2)nc2[nH]cc(-c3ccc4nccnc4c3)c12` [Compound 2230, N-(4,4-Difluorocyclohexyl)-4-methoxy-5-(quinoxalin-6-yl)-7H-pyrrolo[2,3-d]pyrimidin-2-amine] the pEC50 was 8.35. `COc1nc(N[C@H]2CC[C@@](C)(O)CC2)nc2[nH]cc(-c3ccc4nccnc4c3)c12` [Compound 2231, cis-4-((4-Methoxy-5-(quinoxalin-6-yl)-7H-pyrrolo[2,3-d]pyrimidin-2-yl)amino)-1-methylcyclohexan-1-ol] was tested, and the pEC50 was 8.66. Work on `CCOc1nc(N[C@H]2CC[C@@H](O)CC2)nc2[nH]cc(-c3ccc4nccnc4c3)c12` [Compound 2232, cis-4-((4-Ethoxy-5-(quinoxalin-6-yl)-7H-pyrrolo[2,3-d]pyrimidin-2-yl)amino)cyclohexan-1-ol] yielded a pEC50 of 8.89. With `COc1nc(N[C@H]2CC[C@@](C)(O)CC2)nc2[nH]cc(-c3ccc4nccn4c3)c12` [Compound 2233, cis-4-((5-(Imidazo[1,2-a]pyridin-6-yl)-4-methoxy-7H-pyrrolo[2,3-d]pyrimidin-2-yl)amino)-1-methylcyclohexan-1-ol] the pEC50 was 8.80. `C[C@]1(O)CC[C@@H](Nc2ncc3c(-c4ccn5nccc5c4)c[nH]c3n2)CC1` [Compound 2234, cis-1-Methyl-4-((5-(pyrazolo[1,5-a]pyridin-5-yl)-7H-pyrrolo[2,3-d]pyrimidin-2-yl)amino)cyclohexan-1-ol] gave a pEC50 of 8.23. `C[C@]1(O)CC[C@@H](Nc2ncc3c(-c4ccc5nccn5c4)c[nH]c3n2)CC1` [Compound 2235, cis-4-((5-(Imidazo[1,2-a]pyridin-6-yl)-7H-pyrrolo[2,3-d]pyrimidin-2-yl)amino)-1-methylcyclohexan-1-ol] gave a pEC50 of 8.13. Compound `C[C@]1(O)CC[C@H](Nc2ncc3c(-c4ccc5nccn5c4)c[nH]c3n2)CC1` [Compound 2236, trans-4-((5-(Imidazo[1,2-a]pyridin-6-yl)-7H-pyrrolo[2,3-d]pyrimidin-2-yl)amino)-1-methylcyclohexan-1-ol] has a pEC50 of 7.82. Work on `C[C@]1(O)CC[C@H](Nc2ncc3c(-c4cc(F)c5nccn5c4)c[nH]c3n2)CC1` [Compound 2237, trans-4-((5-(8-Fluoroimidazo[1,2-a]pyridin-6-yl)-7H-pyrrolo[2,3-d]pyrimidin-2-yl)amino)-1-methylcyclohexan-1-ol] yielded a pEC50 of 8.10. For `Cc1nc2ccc(-c3c[nH]c4nc(N[C@H]5CC[C@@](C)(O)CC5)ncc34)nc2n1CC(F)F` [Compound 2239, cis-4-((5-(3-(2,2-Difluoroethyl)-2-methyl-3H-imidazo[4,5-b]pyridin-5-yl)-7H-pyrrolo[2,3-d]pyrimidin-2-yl)amino)-1-methylcyclohexan-1-ol], the pEC50 was 8.16. Compound `COc1nc(NCC(C)(C)F)nc2[nH]cc(-c3ccc4nccn4c3)c12` [Compound 2240, N-(2-Fluoro-2-methylpropyl)-5-(imidazo[1,2-a]pyridin-6-yl)-4-methoxy-7H-pyrrolo[2,3-d]pyrimidin-2-amine] has a pEC50 of 8.10. For `COc1nc(NC2CCC(F)(F)CC2)nc2[nH]cc(-c3ccc4nccn4c3)c12` [Compound 2241, N-(4,4-Difluorocyclohexyl)-5-(imidazo[1,2-a]pyridin-6-yl)-4-methoxy-7H-pyrrolo[2,3-d]pyrimidin-2-amine], the pEC50 was 7.57. `[2H]C([2H])([2H])O[C@H]1CC[C@@H](Nc2nc(OC)c3c(-c4ccc5nccn5c4)c[nH]c3n2)CC1` [Compound 2242, 5-(Imidazo[1,2-a]pyridin-6-yl)-4-methoxy-N-(cis-4-(methoxy-d3)cyclohexyl)-7H-pyrrolo[2,3-d]pyrimidin-2-amine] showed a pEC50 of 7.55. `COc1nc(N[C@H]2CC[C@H](OC(F)F)CC2)nc2[nH]cc(-c3ccc4nccn4c3)c12` [Compound 2245, N-(trans-4-(Difluoromethoxy)cyclohexyl)-5-(imidazo[1,2-a]pyridin-6-yl)-4-methoxy-7H-pyrrolo[2,3-d]pyrimidin-2-amine] was tested, and the pEC50 was 7.53. `COc1nc(N[C@H]2CC[C@@H](OC(F)(F)F)CC2)nc2[nH]cc(-c3ccc4nccn4c3)c12` [Compound 2246, 5-(Imidazo[1,2-a]pyridin-6-yl)-4-methoxy-N-(cis-4-(trifluoromethoxy)cyclohexyl)-7H-pyrrolo[2,3-d]pyrimidin-2-amine] was tested, and the pEC50 was 6.88. For `CCOc1nc(N[C@H]2CC[C@@](C)(O)CC2)nc2[nH]cc(-c3ccc4nccn4c3)c12` [Compound 2254, cis-4-((4-Ethoxy-5-(imidazo[1,2-a]pyridin-6-yl)-7H-pyrrolo[2,3-d]pyrimidin-2-yl)amino)-1-methylcyclohexan-1-ol], the pEC50 was 7.59. For `COc1nc(NCC(C)(C)F)nc2[nH]cc(-c3cc(F)c4nccn4c3)c12` [Compound 2255, N-(2-Fluoro-2-methylpropyl)-5-(8-fluoroimidazo[1,2-a]pyridin-6-yl)-4-methoxy-7H-pyrrolo[2,3-d]pyrimidin-2-amine], the pEC50 was 7.72. With `[2H]C([2H])([2H])O[C@H]1CC[C@@H](Nc2nc(OC)c3c(-c4cc(F)c5nccn5c4)c[nH]c3n2)CC1` [Compound 2256, 5-(8-Fluoroimidazo[1,2-a]pyridin-6-yl)-4-methoxy-N-(cis-4-(methoxy-d3)cyclohexyl)-7H-pyrrolo[2,3-d]pyrimidin-2-amine] the pEC50 was 7.82. With `COc1nc(N[C@H]2CC[C@@H](OC(F)F)CC2)nc2[nH]cc(-c3cc(F)c4nccn4c3)c12` [Compound 2258, N-(cis-4-(Difluoromethoxy)cyclohexyl)-5-(8-fluoroimidazo[1,2-a]pyridin-6-yl)-4-methoxy-7H-pyrrolo[2,3-d]pyrimidin-2-amine] the pEC50 was 6.71. For `COc1nc(N[C@H]2CC[C@@H](OC(F)(F)F)CC2)nc2[nH]cc(-c3cc(F)c4nccn4c3)c12` [Compound 2260, 5-(8-Fluoroimidazo[1,2-a]pyridin-6-yl)-4-methoxy-N-(cis-4-(trifluoromethoxy)cyclohexyl)-7H-pyrrolo[2,3-d]pyrimidin-2-amine], the pEC50 was 6.61. In the case of `COc1nc(NC2CCC(F)(F)CC2)nc2[nH]cc(-c3cnc4nccn4c3)c12` [Compound 2268, N-(4,4-Difluorocyclohexyl)-5-(imidazo[1,2-a]pyrimidin-6-yl)-4-methoxy-7H-pyrrolo[2,3-d]pyrimidin-2-amine], the pEC50 was 8.00. For `COc1nc(NCC(C)(C)F)nc2[nH]cc(-c3cnc4nc(C)n(CC(F)F)c4c3)c12` [Compound 2269, 5-(1-(2,2-Difluoroethyl)-2-methyl-1H-imidazo[4,5-b]pyridin-6-yl)-N-(2-fluoro-2-methylpropyl)-4-methoxy-7H-pyrrolo[2,3-d]pyrimidin-2-amine], the pEC50 was 7.11.
